Data: PubChem BioAssay AID2060485 (Molecular Pharmacology Branch, DTP, NCI, 2025)
pIC50: −log10 of the molar value.

System: A375 multi-cell spheroids with HUVEC/MSC, viability
Assay: Anticancer human tumor A375 cell line growth inhibition [GQUAD];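 note: spheroids exposed to compounds for seven days before readout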
Settings: for pIC50: curve of first compound; for viability, T/C: stronger effect = lower value
Procedure, shortened: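 Tumor cells were grown as complex spheroids with HUVEC endothelial cells and mesenchymal stem cells as stroma. G-quadruplex stabilizers were combined with targeted agents over half-log dilutions from near the clinical Cmax, or from 10 microM.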

[1] = second compound 0.0316 µM, first compound 0.0316 µM
[2] = second compound 0.0316 µM, first compound 0.1 µM
[3] = second compound 0.0316 µM, first compound 0.316 µM
[4] = second compound 0.0316 µM, first compound 1 µM
[5] = second compound 0.0316 µM, first compound 3.16 µM
[6] = second compound 0.0316 µM, first compound 10 µM
[7] = second compound 0.1 µM, first compound 0.0316 µM
[8] = second compound 0.1 µM, first compound 0.1 µM
[9] = second compound 0.1 µM, first compound 0.316 µM
[10] = second compound 0.1 µM, first compound 1 µM
[11] = second compound 0.1 µM, first compound 3.16 µM
[12] = second compound 0.1 µM, first compound 10 µM
[13] = second compound 0.316 µM, first compound 0.0316 µM
[14] = second compound 0.316 µM, first compound 0.1 µM
[15] = second compound 0.316 µM, first compound 0.316 µM
[16] = second compound 0.316 µM, first compound 1 µM
[17] = second compound 0.316 µM, first compound 3.16 µM
[18] = second compound 0.316 µM, first compound 10 µM
[19] = second compound 1 µM, first compound 0.0316 µM
[20] = second compound 1 µM, first compound 0.1 µM
[21] = second compound 1 µM, first compound 0.316 µM
[22] = second compound 1 µM, first compound 1 µM
[23] = second compound 1 µM, first compound 3.16 µM
[24] = second compound 1 µM, first compound 10 µM
[25] = second compound 3.16 µM, first compound 0.0316 µM
[26] = second compound 3.16 µM, first compound 0.1 µM
[27] = second compound 3.16 µM, first compound 0.316 µM
[28] = second compound 3.16 µM, first compound 1 µM
[29] = second compound 3.16 µM, first compound 3.16 µM
[30] = second compound 3.16 µM, first compound 10 µM
[31] = second compound 10 µM, first compound 0.0316 µM
[32] = second compound 10 µM, first compound 0.1 µM
[33] = second compound 10 µM, first compound 0.316 µM
[34] = second compound 10 µM, first compound 1 µM
[35] = second compound 10 µM, first compound 3.16 µM
[36] = second compound 10 µM, first compound 10 µM

Structure (SMILES): CC(C)n1c(=O)n(C)c2cnc3cc(F)c(-c4ccc(OCCCN5CCCCC5)nc4)cc3c21 + Cc1[nH]c2ccc(F)cc2c1-c1nc2c3cccnc3c3ncccc3c2[nH]1
- pIC50 (second compound 0.0316 µM): < 5.00
- pIC50 (second compound 0.1 µM): < 5.00
- pIC50 (second compound 0.316 µM): < 5.00
- pIC50 (second compound 1 µM): < 5.00
- pIC50 (second compound 3.16 µM): 5.30
- pIC50 (second compound 10 µM): 5.02
- viability, T/C [1]: 92.3%
- viability, T/C [2]: 93.3%
- viability, T/C [3]: 91.1%
- viability, T/C [4]: 96.3%
- viability, T/C [5]: 109%
- viability, T/C [6]: 91.1%
- viability, T/C [7]: 98.2%
- viability, T/C [8]: 89.7%
- viability, T/C [9]: 97.2%
- viability, T/C [10]: 95.9%
- viability, T/C [11]: 113%
- viability, T/C [12]: 96.3%
- viability, T/C [13]: 92.5%
- viability, T/C [14]: 91.8%
- viability, T/C [15]: 112%
- viability, T/C [16]: 96.7%
- viability, T/C [17]: 106%
- viability, T/C [18]: 90%
- viability, T/C [19]: 89.9%
- viability, T/C [20]: 98.1%
- viability, T/C [21]: 97.8%
- viability, T/C [22]: 96%
- viability, T/C [23]: 116%
- viability, T/C [24]: 93.7%
- viability, T/C [25]: 83.5%
- viability, T/C [26]: 80.2%
- viability, T/C [27]: 92.7%
- viability, T/C [28]: 73%
- viability, T/C [29]: 65.2%
- viability, T/C [30]: 29.3%
- viability, T/C [31]: 106%
- viability, T/C [32]: 101%
- viability, T/C [33]: 101%
- viability, T/C [34]: 88.4%
- viability, T/C [35]: 81.2%
- viability, T/C [36]: 47.7%

Structure (SMILES): CC1COCCN1c1cc(-c2ccnn2C)c2ccnc(-c3ccn[nH]3)c2n1 (centres undefined) + Cc1[nH]c2ccc(F)cc2c1-c1nc2c3cccnc3c3ncccc3c2[nH]1
- pIC50 (second compound 0.0316 µM): 6.20
- pIC50 (second compound 0.1 µM): 6.21
- pIC50 (second compound 0.316 µM): 6.34
- pIC50 (second compound 1 µM): 6.42
- pIC50 (second compound 3.16 µM): 7.45
- pIC50 (second compound 10 µM): 7.28
- viability, T/C [1]: 111%
- viability, T/C [2]: 108%
- viability, T/C [3]: 75.3%
- viability, T/C [4]: 33.3%
- viability, T/C [5]: 13.1%
- viability, T/C [6]: 12.3%
- viability, T/C [7]: 116%
- viability, T/C [8]: 113%
- viability, T/C [9]: 66.4%
- viability, T/C [10]: 39%
- viability, T/C [11]: 12.2%
- viability, T/C [12]: 10.8%
- viability, T/C [13]: 114%
- viability, T/C [14]: 128%
- viability, T/C [15]: 62.6%
- viability, T/C [16]: 34%
- viability, T/C [17]: 13.5%
- viability, T/C [18]: 12.7%
- viability, T/C [19]: 97.7%
- viability, T/C [20]: 87.3%
- viability, T/C [21]: 52.1%
- viability, T/C [22]: 30%
- viability, T/C [23]: 15.6%
- viability, T/C [24]: 14%
- viability, T/C [25]: 52.7%
- viability, T/C [26]: 29.4%
- viability, T/C [27]: 23%
- viability, T/C [28]: 18.2%
- viability, T/C [29]: 11.8%
- viability, T/C [30]: 9.5%
- viability, T/C [31]: 63.3%
- viability, T/C [32]: 30.2%
- viability, T/C [33]: 27.9%
- viability, T/C [34]: 21.4%
- viability, T/C [35]: 18%
- viability, T/C [36]: 11.7%
